Data set [1] is described as follows: Oral bioavailability in Beagle dog at 10 mg/kg by LC-MS/MS analysis. The following applies: in vivo.
Data set [2] relates to HCT-116. As to the kind of experiment: Antiproliferative activity against human HCT116 cells after 48 hrs. The following applies: HCT-116, 48 h. The data set is classed as functional, cell-based.

In turn, `CN1C/C=C/CCOc2cccc(c2)-c2ccnc(n2)Nc2cccc(c2)C1` [ZOTIRACICLIB] yielded a bioavailability in data set [1] of 37%. In data set [2], this compound gave an IC50 of 79 nM.
